23 molecules from ChEMBL document CHEMBL4177563, “The medicinal chemistry of Chikungunya virus” (Bioorg Med Chem, 2017) can be followed below.

One series concerns Chikungunya virus. The series is described as follows: Antiviral activity against Chikungunya virus 899 infected in African green monkey Vero cells by MTS assay. The following applies: Chikungunya virus, 899, Vero. It is filed as functional, organism-based. (Formazan colour is commonly taken as a measure of viable cells.)
Series [1] in a line: Cytotoxicity against African green monkey Vero cells assessed as reduction in cell viability after 18 hrs by […]. To be noted: chlorocebus sabaeus. It is filed as cell-based. (In general: Real-time PCR tracks product formation cycle by cycle.)
Series [2] in a line: Selectivity index, ratio of CC50 for African green monkey Vero cells to EC50 for Chikungunya virus 899. The following applies: read-out: Ratio CC50/EC50. It is filed as toxicity.

Molecule `Cc1cnc(SCc2cc(=O)oc3cc(OCc4ccc(F)cc4)ccc23)[nH]c1=O` had an EC50 in the series with Chikungunya virus of 45.1 µM. Also, the CC50 at 18 h in series [1] is 104 µM. Besides, in series [2], the selectivity ratio was determined as 2.3.
In the series on Chikungunya virus, `Cc1ccc(COc2ccc3c(CSc4nc5ccccc5c(=O)[nH]4)cc(=O)oc3c2)cc1` displayed an EC50 of more than 2.19 µM. Moreover, the CC50 at 18 h in series [1] stood at 102 µM.
As for `O=c1ccnc(SCc2cc(=O)oc3cc(OCc4ccc([N+](=O)[O-])cc4)ccc23)[nH]1`, the EC50 in the series with Chikungunya virus is 4.6 µM. Further, in series [1], the cytotoxic concentration (CC50) at 18 h is 13.8 µM. Further, in series [2], the selectivity ratio came to 3.
Molecule `O=c1cc(CSc2nc3ccccc3c(=O)[nH]2)c2ccc(OS(=O)(=O)c3ccccc3[N+](=O)[O-])cc2o1` had an EC50 with Chikungunya virus of 17.2 µM. For the same molecule, in series [1], the CC50 at 18 h is 144 µM. Moreover, the selectivity ratio in series [2] is 8.8.
Consider `Cc1cnc(SCc2cc(=O)oc3cc(OCc4ccccc4)ccc23)[nH]c1=O`, for which the EC50 in the series on Chikungunya virus is more than 246 µM.
Same read-out and setting: the value for `O=c1ccnc(SCc2cc(=O)oc3cc(O)ccc23)[nH]1` was more than 331 µM.
`Cc1ccc(S(=O)(=O)Oc2ccc3c(CSc4nc5ccccc5c(=O)[nH]4)cc(=O)oc3c2)cc1` returned an EC50 in the series with Chikungunya virus of 10.2 µM. Also, the CC50 at 18 h in series [1] was determined as 117 µM. Besides, the selectivity ratio in series [2] stood at 11.5.
Taken in the same sequence, the figures for `O=c1cc(CSc2nc3ccccc3c(=O)[nH]2)c2ccc(OS(=O)(=O)c3ccc(F)cc3)cc2o1` were 18.4 µM, 30 µM and 1.6.
For `Cc1ccc2nc(SCc3cc(=O)oc4cc(OS(=O)(=O)c5ccccc5)ccc34)[nH]c(=O)c2c1`, in that order: 58 µM, 126 µM and 2.2.
For `O=C1CCN=C(SCc2cc(=O)oc3cc(OS(=O)(=O)c4ccc([N+](=O)[O-])cc4)ccc23)N1`, the EC50 in the series with Chikungunya virus was more than 205 µM.
For the molecule `Cc1ccc2nc(SCc3cc(=O)oc4cc(OS(=O)(=O)c5ccccc5[N+](=O)[O-])ccc34)[nH]c(=O)c2c1`, the response with Chikungunya virus was half-maximal at 19 µM (EC50). The CC50 at 18 h in series [1] turned out to be 107 µM. The selectivity ratio in series [2] stood at 5.6.
Taken in the same sequence, the figures for `Cc1ccc(S(=O)(=O)Oc2ccc3c(CSc4nc5ccc(C)cc5c(=O)[nH]4)cc(=O)oc3c2)cc1` were 26.4 µM, 114 µM and 4.3.
`Cc1ccc2nc(SCc3cc(=O)oc4cc(OS(=O)(=O)c5ccc([N+](=O)[O-])cc5)ccc34)[nH]c(=O)c2c1` yielded an EC50 in the series on Chikungunya virus of more than 199 µM.
In the series on Chikungunya virus, `O=c1cc(CSc2nc(O)c3ccccc3n2)c2ccc(O)cc2o1` displayed an EC50 of 192 µM. Moreover, the CC50 at 18 h in series [1] was more than 284 µM. Besides, the selectivity ratio in series [2] was more than 1.5.
On to `O=c1cc(CSc2nc3ccccc3c(=O)[nH]2)c2ccc(OCc3ccccc3)cc2o1`, for which the EC50 with Chikungunya virus is more than 45.2 µM.
The molecule `O=c1cc(CSc2nc3ccccc3c(=O)[nH]2)c2ccc(OS(=O)(=O)c3ccccc3)cc2o1` came in with an EC50 in the series with Chikungunya virus of 19.1 µM. Besides, the CC50 at 18 h in series [1] is 178 µM. Further, the selectivity ratio in series [2] amounted to 9.3.
For the molecule `Cc1cnc(SCc2cc(=O)oc3cc(O)ccc23)[nH]c1=O`, the EC50 in the series with Chikungunya virus is more than 316 µM.
In the series with Chikungunya virus, `O=c1ccnc(SCc2cc(=O)oc3cc(OCc4ccccc4)ccc23)[nH]1` came in with a concentration giving a half-maximal response (EC50) of more than 255 µM.
The same measure, in the same setting: the value for `O=C1CCN=C(SCc2cc(=O)oc3cc(OS(=O)(=O)c4ccccc4)ccc23)N1` was 57.4 µM.
In turn, `Cc1ccc2nc(SCc3cc(=O)oc4cc(OS(=O)(=O)c5ccc(F)cc5)ccc34)[nH]c(=O)c2c1` registered an EC50 in the series with Chikungunya virus of 116 µM. The CC50 at 18 h in series [1] came out at 86.4 µM.
Regarding `Cc1ccc(COc2ccc3c(CSc4ncc(C)c(=O)[nH]4)cc(=O)oc3c2)cc1`, the EC50 in the series with Chikungunya virus was more than 48 µM.
In the case of `O=c1cc(CSc2nc3ccccc3c(=O)[nH]2)c2ccc(OS(=O)(=O)c3ccc([N+](=O)[O-])cc3)cc2o1`, the response in the series on Chikungunya virus was half-maximal at 54.5 µM (EC50). For the same molecule, the CC50 at 18 h in series [1] was determined as 117 µM. Moreover, the selectivity ratio in series [2] stood at 2.2.
The molecule `O=C1CCN=C(SCc2cc(=O)oc3cc(OS(=O)(=O)c4ccc(F)cc4)ccc23)N1` registered an EC50 in the series with Chikungunya virus of 128 µM. Besides, in series [1], the CC50 at 18 h came out at 111 µM.

One may read the EC50 as the concentration needed to bring the measured effect to its halfway point. The CC50 is the concentration giving 50% cytotoxicity.
